# Measurements: patent US7863478B2, “UV filters” (Merck Patent GmbH, priority 2004, dated 2011)
# What was measured:
# [1] = UV absorption (UV-VIS spectra in 2-propanol, 1 mg/100 ml); type: physicochemical; design: UV absorbance at λmax (1 mg/100 ml): unit not given here; conditions: for UVB (280-320 nm) max. abs / UVB max. at λ [nm] / UVA (400-320 nm) max. abs / UVA max. at λ [nm]: solvent 2-Propanol, c 1 mg/100 ml; for UV-VIS λmax / UV absorbance at λmax (1 mg/100 ml): 1 mg/100 ml; for UV absorbance at λmax (1 mg/100 ml): value in brackets after λmax in the synthesis example
# Procedure: FIG. 1: UV absorption spectra of 1-hydroxy-3-[(E)-3-(4-methoxyphenyl)-2-propenoyloxy]-2-oxopropane (Example 1a) and 1-hydroxy-3-(2-cyano-3,3-diphenylacryloyloxy)-2-oxopropane (Example 1b) (in each case measured in 2-propanol at a concentration of 1 mg/100 ml)
# FIG. 2: UV absorption spectra of 3-[4-(3-hydroxy-2-oxopropoxymethyl)benzylidene]-4,7,7-trimethylbicyclo[2.2.1]heptan-2-one (Example 9), N-(2,3-dihydroxypropyl)-(E)-3-(4-methoxyphenyl)acrylamide (Example 10a) and N-(2,3-dihydroxypropyl)-N-methyl-(E)-3-(4-methoxyphenyl)acrylamide (Example 10b) (in each case measured in 2-propanol at a concentration of 1 mg/100 ml).
SMILES,UVB (280-320 nm) max. abs [1],UVB max. at λ [nm] [1] [nm],also measured
COc1ccc(/C=C/C(=O)OCC(O)CO)cc1 (stereo not drawn),0.881,302.0,
CC1(C)OCC(COc2ccc(C(=O)c3ccccc3)c(O)c2)O1 (stereo not drawn),0.473,286.1,UVA (400-320 nm) max. abs [1]: 0.312; UVA max. at λ [nm] [1]: 328.3 nm
"CN(Cc1ccc(/C=C2\C(=O)C3CCC2(C)C3(C)C)cc1)CC(O)CO (stereo not drawn) [3-(4-{[(2,3-Dihydroxypropyl)methylamino]methyl}benzylidene)-4,7,7-trimethylbicyclo[2.2.1]heptan-2-one]",0.711,296,
"CN(Cc1ccc(/C=C2\C(=O)C3CCC2(C)C3(C)C)cc1)CC(O)CO[Si](C)(C)C(C)(C)C (stereo not drawn) [3-[4-({[3-(tert-butyldimethylsilyloxy)-2-hydroxypropyl]-methylamino}methyl)benzylidene]-4,7,7-trimethylbicyclo[2.2.1]heptan-2-one]",0.545,297,
"COc1ccc(/C=C/C(=O)OCC(=O)CO)cc1 [Example 1a, 1-Hydroxy-3-[(E)-3-(4-methoxyphenyl)-2-propenoyloxy]-2-oxopropane]",,,melting point: 172 to 174 °C; UV-VIS λmax [1]: 301.0 nm; UV absorbance at λmax (1 mg/100 ml) [1]: 0.947
"N#CC(C(=O)OCC(=O)CO)=C(c1ccccc1)c1ccccc1 [Example 1b, 1-Hydroxy-3-(2-cyano-3,3-diphenylacryloyloxy)-2-oxopropane]",,,melting point: 204 °C (dec.); UV-VIS λmax [1]: 303.0 nm; UV absorbance at λmax (1 mg/100 ml) [1]: 0.375
"CN(C)c1ccc(C(=O)OCC2COC(C)(C)O2)cc1 (stereo not drawn) [Example 4, 4-(4-Dimethylaminophenylcarbonyloxymethyl)-2,2-dimethyl-1,3-dioxolane]",,,UV-VIS λmax [1]: 310.0 nm; UV absorbance at λmax (1 mg/100 ml) [1]: 0.86
"CN(C)c1ccc(C(=O)OCC(O)CO)cc1 (stereo not drawn) [Example 5, 2,3-Dihydroxypropyl 4-dimethylaminobenzoate]",,,UV-VIS λmax [1]: 310.0 nm; UV absorbance at λmax (1 mg/100 ml) [1]: 1.01
"CN(C)c1ccc(C(=O)OCC(O)CO[Si](C)(C)C(C)(C)C)cc1 (stereo not drawn) [Example 6, 3-(tert-Butyldimethylsilyloxy)-2-hydroxypropyl 4-dimethylaminobenzoate]",,,UV-VIS λmax [1]: 310.0 nm; UV absorbance at λmax (1 mg/100 ml) [1]: 1.01
"CCCCC(CC)COc1ccc(/C=C/C(=O)NCC(O)CO)cc1 (stereo not drawn) [Example 10c, N-(2,3-dihydroxypropyl)-(E)-[4-(2-ethylhexyloxyphenyl)]acrylamide]",,,UV-VIS λmax [1]: 307.0 nm; UV absorbance at λmax (1 mg/100 ml) [1]: 0.688
"CN(C)c1ccc(C(=O)NCC(=O)CO[Si](C)(C)C(C)(C)C)cc1 [Example 19, N-[3-(tert-butyldimethylsilyloxy)-2-oxopropyl]-4-dimethylaminobenzamide]",,,UV-VIS λmax [1]: 312.0 nm; UV absorbance at λmax (1 mg/100 ml) [1]: 0.713
"CN(C)c1ccc(C(=O)NCC(=O)CO)cc1 [Example 22, N-(3-hydroxy-2-oxopropyl)-4-dimethylaminobenzamide]",,,UV-VIS λmax [1]: 298.0 nm; UV absorbance at λmax (1 mg/100 ml) [1]: 0.575
CN(C)c1ccc(C(=O)NCC(O)CO)cc1 (stereo not drawn) [drawing 82],0.947,301.0,
"CN(C)c1ccc(C(=O)OCC(=O)CO)cc1 [drawing 83, 3-Hydroxy-2-oxopropyl 4-dimethylaminobenzoate]",1.213,311.0,
"CN(C)c1ccc(C(=O)NCC(O)CO[Si](C)(C)C(C)(C)C)cc1 (stereo not drawn) [drawing 84, N-[3-(tert-butyldimethylsilyloxy)-2-hydroxypropyl]-4-dimethylaminobenzamide]",0.64,301.0,
"CN(C)c1ccc(C(=O)NCC(=O)CO[Si](C)(C)C(C)(C)C)cc1 [drawing 86, N-[3-(tert-butyldimethylsilyloxy)-2-oxopropyl]-4-dimethylaminobenzamide]",0.713,312.0,
"CCCCC(CC)COc1ccc(/C=C/C(=O)NCC(O)CO)cc1 (stereo not drawn) [drawing 89, N-(2,3-dihydroxypropyl)-(E)-[4-(2-ethylhexyloxyphenyl)]acrylamide]",0.688,307.0,
COc1ccc(/C=C/C(=O)NCC(O)CO[Si](C)(C)C(C)(C)C)cc1 (stereo not drawn) [drawing 93],0.694,289,

# Continued, in another order:
UVB (280-320 nm) max. abs [1],UVB max. at λ [nm] [1] [nm],SMILES,also measured
0.796,306.0,COc1ccc(/C=C/C(=O)OCC2COC(C)(C)O2)cc1 (stereo not drawn),
0.537,287.9,O=C(c1ccccc1)c1ccc(OCC(O)CO)cc1O (stereo not drawn),UVA (400-320 nm) max. abs [1]: 0.363; UVA max. at λ [nm] [1]: 327.5 nm
0.692,298.0,CC12CCC(C(=O)/C1=C\c1ccc(CNCC(O)CO)cc1)C2(C)C (stereo not drawn),
0.615,298.0,"COC(CO)(COCc1ccc(/C=C2\C(=O)C3CCC2(C)C3(C)C)cc1)OC (stereo not drawn) [3-[4-(3-hydroxy-2,2-dimethoxypropoxymethyl)benzylidene]-4,7,7-trimethylbicyclo[2.2.1]heptan-2-one]",
0.874,296,"CC12CCC(C(=O)/C1=C\c1ccc(COCC(=O)CO)cc1)C2(C)C (stereo not drawn) [3-[4-(3-hydroxy-2-oxopropoxymethyl)benzylidene]-4,7,7-trimethylbicyclo[2.2.1]heptan-2-one]",
0.107,300.67,COc1ccc(/C=C/C(=O)OCC(=O)COC(=O)/C=C/c2ccc(OC)cc2)cc1 [drawing 73],
0.893,311.33,COc1ccc(/C=C/C(=O)OCC(=O)CO)cc1 [drawing 74],
0.936,292.00,COc1ccc(/C=C/C(=O)NCC(O)CO)cc1 (stereo not drawn) [drawing 75],
0.375,303.0,"N#CC(C(=O)OCC(=O)CO)=C(c1ccccc1)c1ccccc1 [drawing 77, 1-Hydroxy-3-(2-cyano-3,3-diphenylacryloyloxy)-2-oxopropane]",
0.031,304.0,"N#CC(C(=O)OCC(=O)COC(=O)C(C#N)=C(c1ccccc1)c1ccccc1)=C(c1ccccc1)c1ccccc1 [drawing 78, 1,3-Bis-(2-cyano-3,3-diphenylacryloyloxy)-2-oxopropane]",
0.941,294.0,"COc1ccc(/C=C/C(=O)NCC(=O)CO)cc1 [drawing 81, N-(3-hydroxy-2-oxopropyl)-(E)-3-(4-methoxyphenyl)acrylamide]",
0.575,298.0,"CN(C)c1ccc(C(=O)NCC(=O)CO)cc1 [drawing 85, N-(3-hydroxy-2-oxopropyl)-4-dimethylaminobenzamide]",
0.706,307.5,"CCCCC(CC)COc1ccc(/C=C/C(=O)NCC(=O)CO)cc1 (stereo not drawn) [drawing 90, N-(3-hydroxy-2-oxopropyl)-(E)-3-[4-(2-ethylhexyloxyphenyl)]acrylamide]",
0.914,289,COc1ccc(/C=C/C(=O)NCC(O)CO)cc1 (stereo not drawn) [drawing 94],
0.715,292,COc1ccc(/C=C/C(=O)N(C)CC(O)CO)cc1 (stereo not drawn) [drawing 96],
